Test results from patent US8741944B2, “Anti-infective agents against intracellular pathogens” (priority 2007, dated 2014).
Like-named read-outs stand apart in the source and are kept apart here.

Assays:
M14 (Melanoma) = assay: NCI DTP tumor cell line screen (SRB), M14
Procedure: (§1) For a typical screening experiment, cells are inoculated into 96 well microtiter plates in 100 μL at plating densities ranging from 5,000 to 40,000 cells/well depending on the doubling time of individual cell lines. After cell inoculation, the microtiter plates are incubated at 37° C., 5% CO2, 95% air and 100% relative humidity for 24 h prior to addition of experimental drugs.
(§2) After 24 h, two plates of each cell line are fixed in situ with TCA, to represent a measurement of the cell population for each cell line at the time of drug addition (Tz). Experimental drugs are solubilized in dimethyl sulfoxide at 400-fold the desired final maximum test concentration and stored frozen prior to use. At the time of drug addition, an aliquot of frozen concentrate is thawed and diluted to twice the desired final maximum test concentration with complete medium containing 50 μg/ml gentamicin. Additional four, 10-fold or ½ log serial dilutions are made to provide a total of five drug concentrations plus control. Aliquots of 100 μl of these different drug dilutions are added to the appropriate microtiter wells already containing 100 μl of medium, resulting in the required final drug concentrations.
(§3) Following drug addition, the plates are incubated for an additional 48 h at 37° C., 5% CO2, 95% air, and 100% relative humidity. For adherent cells, the assay is terminated by the addition of cold TCA. Cells are fixed in situ by the gentle addition of 50 μl of cold 50% (w/v) TCA (final concentration, 10% TCA) and incubated for 60 minutes at 4° C. The supernatant is discarded, and the plates are washed five times with tap water and air dried. Sulforhodamine B (SRB) solution (1001) at 0.4% (w/v) in 1% acetic acid is added to each well, and plates are incubated for 10 minutes at room temperature. After staining, unbound dye is removed by washing five times with 1% acetic acid and the plates are air dried. Bound stain is subsequently solubilized with 10 mM trizma base, and the absorbance is read on an automated plate reader at a wavelength of 515 nm. For suspension cells, the methodology is the same except that the assay is terminated by fixing settled cells at the bottom of the wells by gently adding 50 μl of 80% TCA (final concentration, 16% TCA). Using the seven absorbance measurements [time zero, (Tz), control growth, (C), and test growth in the presence of drug at the five concentration levels (Ti)], the percentage growth is calculated at each of the drug concentrations levels. Percentage growth inhibition is calculated as: [(Ti−Tz)/(C−Tz)]×100 for concentrations for which Ti>/=Tz [(Ti−Tz)/Tz]×100 for concentrations for which Ti<Tz
(§4) Three dose response parameters are calculated for each experimental agent. […] The drug concentration resulting in total growth inhibition (TGI) is calculated from Ti=Tz. […] Values are calculated for each of these three parameters if the level of activity is reached; however, if the effect is not reached or is exceeded, the value for that parameter is expressed as greater or less than the maximum or minimum concentration tested.

HT29 (Colon Cancer) = assay: NCI DTP tumor cell line screen (SRB), HT29
Procedure: as §1, §2, §3, §4

A498 (Renal Cancer) = assay: NCI DTP tumor cell line screen (SRB), A498
Procedure: as §1, §2, §3, §4

ACHN (Renal Cancer) = assay: NCI DTP tumor cell line screen (SRB), ACHN
Procedure: as §1, §2, §3, §4

786-0 (Renal Cancer) = assay: NCI DTP tumor cell line screen (SRB), 786-0
Procedure: as §1, §2, §3, §4

SN12C (Renal Cancer) = assay: NCI DTP tumor cell line screen (SRB), SN12C
Procedure: as §1, §2, §3, §4

UO-31 (Renal Cancer) = assay: NCI DTP tumor cell line screen (SRB), UO-31
Procedure: as §1, §2, §3, §4

MOLT-4 (Leukemia) = assay: NCI DTP tumor cell line screen (SRB), MOLT-4
Procedure: as §1, §2, §3, §4

[1] = test system: HOP-92 (Non-Small Cell Lung Cancer); assay: NCI DTP tumor cell line screen (SRB), HOP-92
Procedure: as §1, §2, §3, §4

SW-620 (Colon Cancer) = assay: NCI DTP tumor cell line screen (SRB), SW-620
Procedure: as §1, §2, §3, §4

DU-145 (Prostate Cancer) = assay: NCI DTP tumor cell line screen (SRB), DU-145
Procedure: as §1, §2, §3, §4

OVCAR-4 (Ovarian Cancer) = assay: NCI DTP tumor cell line screen (SRB), OVCAR-4
Procedure: as §1, §2, §3, §4

RXF 393 (Renal Cancer) = assay: NCI DTP tumor cell line screen (SRB), RXF 393
Procedure: as §1, §2, §3, §4

HS 578T (Breast Cancer) = assay: NCI DTP tumor cell line screen (SRB), HS 578T
Procedure: as §1, §2, §3, §4

[2] = test system: NCI-H522 (Non-Small Cell Lung Cancer)
Procedure: as §1, §2, §3, §4

LOX IMVI (Melanoma) = assay: NCI DTP tumor cell line screen (SRB), LOX IMVI
Procedure: as §1, §2, §3, §4

4-[5-(2-Phenanthrenyl)-3-(trifluoromethyl)-1H-pyrazol-1-yl]-phenyl -guanidine [Compound 71]
GI50 (M14 (Melanoma)): 1480 nM | TGI (M14 (Melanoma)): 2.80E−06 | Percent Growth (M14 (Melanoma); Log10 Concentration −4.0): −33% | Percent Growth (M14 (Melanoma); Log10 Concentration −5.0): −100% | Percent Growth (M14 (Melanoma); Log10 Concentration −7.0): 82% | GI50 (HT29 (Colon Cancer)): 1500 nM | TGI (HT29 (Colon Cancer)): 2.83E−06 | Percent Growth (HT29 (Colon Cancer); Log10 Concentration −4.0): −99% | Percent Growth (HT29 (Colon Cancer); Log10 Concentration −5.0): −100% | Percent Growth (HT29 (Colon Cancer); Log10 Concentration −6.0): 82% | Percent Growth (HT29 (Colon Cancer); Log10 Concentration −7.0): 91% | Percent Growth (HT29 (Colon Cancer); Log10 Concentration −8.0): 95% | GI50 (A498 (Renal Cancer)): 16500 nM | TGI (A498 (Renal Cancer)): 4.35E−05 | Percent Growth (A498 (Renal Cancer); Log10 Concentration −4.0): −43% | Percent Growth (A498 (Renal Cancer); Log10 Concentration −5.0): 76% | Percent Growth (A498 (Renal Cancer); Log10 Concentration −6.0): 73% | Percent Growth (A498 (Renal Cancer); Log10 Concentration −7.0): 91% | Percent Growth (A498 (Renal Cancer); Log10 Concentration −8.0): 116% | GI50 (ACHN (Renal Cancer)): 1670 nM | TGI (ACHN (Renal Cancer)): 3.15E−06 | Percent Growth (ACHN (Renal Cancer); Log10 Concentration −4.0): −22% | Percent Growth (ACHN (Renal Cancer); Log10 Concentration −5.0): −91% | Percent Growth (ACHN (Renal Cancer); Log10 Concentration −6.0): 90% | Percent Growth (ACHN (Renal Cancer); Log10 Concentration −8.0): 80% | GI50 (786-0 (Renal Cancer)): 1490 nM | TGI (786-0 (Renal Cancer)): 2.91E−06 | Percent Growth (786-0 (Renal Cancer); Log10 Concentration −4.0): −30% | Percent Growth (786-0 (Renal Cancer); Log10 Concentration −6.0): 80% | GI50 (SN12C (Renal Cancer)): 1570 nM | TGI (SN12C (Renal Cancer)): 2.91E−06 | Percent Growth (SN12C (Renal Cancer); Log10 Concentration −4.0): −62% | Percent Growth (SN12C (Renal Cancer); Log10 Concentration −5.0): −100% | Percent Growth (SN12C (Renal Cancer); Log10 Concentration −7.0): 78% | GI50 (UO-31 (Renal Cancer)): 1570 nM | TGI (UO-31 (Renal Cancer)): 2.92E−06 | Percent Growth (UO-31 (Renal Cancer); Log10 Concentration −4.0): −35% | Percent Growth (UO-31 (Renal Cancer); Log10 Concentration −5.0): −100% | Percent Growth (UO-31 (Renal Cancer); Log10 Concentration −7.0): 94% | Percent Growth (UO-31 (Renal Cancer); Log10 Concentration −8.0): 91% | GI50 (MOLT-4 (Leukemia)): 233 nM | TGI (MOLT-4 (Leukemia)): 1.98E−06 | Percent Growth (MOLT-4 (Leukemia); Log10 Concentration −6.0): 23% | Percent Growth (MOLT-4 (Leukemia); Log10 Concentration −7.0): 66% | GI50 [1]: 1010 nM | TGI [1]: 2.26E−06 | Percent Growth ([1]; Log10 Concentration −4.0): −28% | Percent Growth ([1]; Log10 Concentration −5.0): −92% | Percent Growth ([1]; Log10 Concentration −6.0): 50% | Percent Growth ([1]; Log10 Concentration −7.0): 82% | GI50 (SW-620 (Colon Cancer)): 1750 nM | TGI (SW-620 (Colon Cancer)): 3.13E−06 | Percent Growth (SW-620 (Colon Cancer); Log10 Concentration −4.0): −92% | Percent Growth (SW-620 (Colon Cancer); Log10 Concentration −5.0): −100% | Percent Growth (SW-620 (Colon Cancer); Log10 Concentration −6.0): 98% | Percent Growth (SW-620 (Colon Cancer); Log10 Concentration −7.0): 91% | Percent Growth (SW-620 (Colon Cancer); Log10 Concentration −8.0): 83% | GI50 (DU-145 (Prostate Cancer)): 1550 nM | TGI (DU-145 (Prostate Cancer)): 2.89E−06 | Percent Growth (DU-145 (Prostate Cancer); Log10 Concentration −4.0): −100% | Percent Growth (DU-145 (Prostate Cancer); Log10 Concentration −5.0): −100% | Percent Growth (DU-145 (Prostate Cancer); Log10 Concentration −6.0): 85% | Percent Growth (DU-145 (Prostate Cancer); Log10 Concentration −8.0): 72% | GI50 (OVCAR-4 (Ovarian Cancer)): 1310 nM | TGI (OVCAR-4 (Ovarian Cancer)): 2.58E−06 | Percent Growth (OVCAR-4 (Ovarian Cancer); Log10 Concentration −4.0): −66% | Percent Growth (OVCAR-4 (Ovarian Cancer); Log10 Concentration −5.0): −100% | Percent Growth (OVCAR-4 (Ovarian Cancer); Log10 Concentration −6.0): 70% | Percent Growth (OVCAR-4 (Ovarian Cancer); Log10 Concentration −7.0): 79% | TGI (RXF 393 (Renal Cancer); RXF 383): 2.91E−06 | Percent Growth (RXF 393 (Renal Cancer); RXF 383, Log10 Concentration −4.0): −4% | Percent Growth (RXF 393 (Renal Cancer); RXF 383, Log10 Concentration −6.0): 53% | Percent Growth (RXF 393 (Renal Cancer); RXF 383, Log10 Concentration −7.0): 53% | Percent Growth (RXF 393 (Renal Cancer); RXF 383, Log10 Concentration −8.0): 42% | GI50 (HS 578T (Breast Cancer)): 1860 nM | TGI (HS 578T (Breast Cancer)): 3.78E−06 | Percent Growth (HS 578T (Breast Cancer); Log10 Concentration −4.0): −38% | Percent Growth (HS 578T (Breast Cancer); Log10 Concentration −5.0): −69% | Percent Growth (HS 578T (Breast Cancer); Log10 Concentration −6.0): 94% | Percent Growth (HS 578T (Breast Cancer); Log10 Concentration −7.0): 100% | GI50 [2]: 1450 nM | TGI [2]: 2.82E−06 | Percent Growth ([2]; Log10 Concentration −4.0): −43% | Percent Growth ([2]; Log10 Concentration −5.0): −95% | Percent Growth ([2]; Log10 Concentration −6.0): 78% | Percent Growth ([2]; Log10 Concentration −8.0): 82% | GI50 (LOX IMVI (Melanoma)): 1340 nM | TGI (LOX IMVI (Melanoma)): 2.65E−06 | Percent Growth (LOX IMVI (Melanoma); Log10 Concentration −4.0): −53% | Percent Growth (LOX IMVI (Melanoma); Log10 Concentration −5.0): −98% | Percent Growth (LOX IMVI (Melanoma); Log10 Concentration −6.0): 72% | Percent Growth (LOX IMVI (Melanoma); Log10 Concentration −8.0): 73%
